Key:
[1] = tested on: HIV-1 IIIB (B, X4); experiment: Inactivation of cell-free virus, PEG 6000 precipitation, MT-2 cells, p24; format: cell-based; details: FIG. 17, MT-2 cells
Method: (§1) Briefly, HIV-1 isolate (500 TCID50/ml) was added to 100 μl of the samples with different concentration and incubate on 4° C. for 1 hour. Then, PEG 6000 was added to the final concentration of 3% and centrifuge on a microfuge at 15,000 rpm for 30 min. The supernatants were removed, and the pellet was washed with PBS and resuspended to 100 μl. MT-2 or TZM-bl cells (1×10^5/ml) were added at 100 μl/well, and cultured at 37° C. for 3 days. p24 production in MT-2 or luciferase activity was determined according to kit manufacturer' instruction.

[2] = tested on: HIV-1 IIIB chronically infected H9 cells / MT-2 cells; format: cell-based
Method: HIV-1-mediated cell-cell fusion was determined by a dye transfer assay (Lu H et al. J Virol Methods 107:155-161, 2003.) using Calcein AM-labeled HIV-1IIIB chronically infected H9 (H9/HIV-1 IIIB) cells as effector cells and MT-2 cells as target cells.

[3] = tested on: HIV-1 Bal (B, R5); experiment: Inactivation of cell-free virus, PEG 6000 precipitation, TZM-bl cells, luciferase; format: cell-based; details: FIG. 18, luciferase
Method: as §1

[4] = tested on: HIV-1 IIIB (B, X4)
Method: The inhibitory activity of the bifunctional molecule on HIV-1 IIIB infection was determined by ELISA for p24 production (Jiang S et al. J Exp Med 174:1557-1563, 1991). Briefly, MT-2 cells were infected with HIV-1IIIB at 100 TCID50 (50% tissue culture infective dose) in RPMI 1640 medium containing 10% FBS in the presence or absence of an antigen specific antiserum or IgG antibody in serial 2-fold dilutions at 37° C. overnight. The culture supernatants were then removed and fresh media were added. On day 4 post-infection, the culture supernatants were collected and mixed with equal volumes of 5% TRITON™ X-100 for the detection in the p24 protein ELISA.

[5] = tested on: 92TH009 (E/A, R5); experiment: Primary HIV-1 isolate infection of PBMCs, p24 ELISA; format: cell-based
Method: (§2) The inhibitory activity of the bifunctional molecule on infection by primary HIV-1 isolates, 92US657 (B, R5), 94UG103 (A, X4R5), 93MW959 (C, R5), RU570 (G, R5) and 92TH009 (E/A, R5) was determined (Jiang S et al. Antimicrob Agents Chemother 48:4349-4359, 2004). Briefly, peripheral blood mononuclear cells (PBMCs) were isolated from the blood of healthy donors using a standard density gradient (Histopaque-1077, Sigma) centrifugation. After incubation at 37° C. for 2 hr, the nonadherent cells were collected and resuspended at 5×10^5/ml in RPMI 1640 medium containing 10% FBS, 5 μg of phytohemagglutinin (PHA)/ml, and 100 U of IL-2/ml, followed by incubation at 37° C. for 3 days. The PHA-stimulated cells were infected with the corresponding primary HIV-1 isolates at a multiplicity of infection (MOI) of 0.01 in the absence or presence of antisera at a serial 2-fold dilution. The supernatants were collected 7 days post-infection and tested for p24 antigen by ELISA as described above. The IC50 was calculated using the […]™ software as described above.

[6] = tested on: HIV-1 Bal (B, R5); format: cell-based
Method: The cells were harvested and lysed on the fourth day post-infection with 50 μl of lysing reagent. The luciferase activity was analyzed using a luciferase kit (Promega) and a luminometer (Ultra 386, Tecan) according to the manufacturer's instruction. The percent inhibition of luciferase activity was calculated.

[7] = tested on: 93MW959 (C, R5); format: cell-based, HIV-1
Method: as §2

[8] = tested on: 94UG103 (A, X4R5); format: cell-based, HIV-1
Method: as §2

[9] = tested on: 92US657 (B, R5); format: cell-based, HIV-1
Method: as §2

[10] = tested on: RU570 (G, R5); format: cell-based, HIV-1
Method: as §2

For enfuvirtide, the “virus inactivation activity, HIV-1 IIIB” value [1] was “no significant effects on virus”, the IC50 [2] was 0.0201 µM and the IC90 [2] was 0.0417 µM. For the same substance, the “virus inactivation activity, HIV-1 Bal” value [3] was “no significant effects on virus”, the IC50 [4] was 0.0173 µM and the IC90 [4] was 0.117 µM. For the same substance, the IC50 ([5]; read-out: IC50, HIV-1 replication 92TH009 (E/A, R5)) was 0.00143 µM, the IC90 ([5]; read-out: IC90, HIV-1 replication 92TH009 (E/A, R5)) was 0.00799 µM and the IC50 [6] was 0.0433 µM. For the same substance, the IC90 [6] was > 0.25 µM, the IC50 [7] was 0.0047 µM and the IC90 [7] was 0.0188 µM. It also gave an IC50 [8] of 0.00667 µM, an IC90 [8] of 0.0294 µM and an IC50 [9] of 0.0561 µM. It also gave an IC90 [9] of 0.224 µM, an IC50 [10] of 0.0441 µM and an IC90 [10] of 0.11 µM.

Source: patent publication US8828932B2, “Bifunctional molecules for inactivating HIV and blocking HIV entry” (New York Blood Center, Inc., priority 2010, dated 2014)
